From the NIST ThermoML archive (doi:10.1021/je600557n)

Assays:
[1] = xn = mol fraction of the nth substance listed; conditions: 101 kPa, Liquid
[2] = molar heat capacity at constant pressure; xn = mol fraction of the nth substance listed; conditions: 101 kPa, Liquid, Small sample (50 mg) DSC
[3] = refractive index (Na D-line) (dimensionless); xn = mol fraction of the nth substance listed; conditions: 101 kPa, Liquid, Standard Abbe refractometry

CC1CCCO1 (centres undefined) [2-methyltetrahydrofuran] + C[S+](C)[O-]
Conditions | mass density, [1] [kg/m3] | molar heat capacity at constant pressure, [2] [J/K/mol] | refractive index, [3] | viscosity, [1] [mPa·s]
293.15 K, x2 = 0.0675 | 865.78 | – | 1.4121 | 0.537
293.15 K, x2 = 0.1033 | – | 155.2 | – | –
293.15 K, x2 = 0.1168 | 875.28 | – | 1.4152 | 0.561
293.15 K, x2 = 0.1368 | – | 155.1 | – | –
293.15 K, x2 = 0.2208 | 896.02 | – | 1.4215 | 0.631
293.15 K, x2 = 0.2714 | – | 155 | – | –
293.15 K, x2 = 0.3228 | 917.54 | – | 1.4282 | 0.719
293.15 K, x2 = 0.3775 | – | 154.6 | – | –
293.15 K, x2 = 0.4044 | 935.66 | – | 1.4336 | 0.78
293.15 K, x2 = 0.4694 | 950.78 | – | 1.438 | 0.876
293.15 K, x2 = 0.4881 | – | 154.2 | – | –
293.15 K, x2 = 0.5058 | 959.5 | – | 1.4407 | 0.926
293.15 K, x2 = 0.5877 | – | 153.8 | – | –
293.15 K, x2 = 0.5888 | 980.16 | – | 1.4468 | 1.047
293.15 K, x2 = 0.6274 | – | 153.6 | – | –
293.15 K, x2 = 0.6692 | 1001.25 | – | 1.4527 | 1.194
293.15 K, x2 = 0.6833 | – | 153.2 | – | –
293.15 K, x2 = 0.7448 | 1022.04 | – | 1.4589 | 1.354
293.15 K, x2 = 0.7593 | – | 152.9 | – | –
293.15 K, x2 = 0.8192 | 1043.57 | – | 1.4651 | 1.55
293.15 K, x2 = 0.8559 | – | 152 | – | –
293.15 K, x2 = 0.9343 | – | 151.2 | – | –
293.15 K, x2 = 0.9523 | 1084.75 | – | 1.477 | 2.004
293.15 K, x2 = 0.9687 | – | 150.8 | – | –
303.15 K, x2 = 0.0609 | 854.29 | – | 1.4055 | 0.468
303.15 K, x2 = 0.1033 | – | 158.4 | – | –
303.15 K, x2 = 0.1281 | 867.26 | – | 1.4096 | 0.501
303.15 K, x2 = 0.1368 | – | 158.3 | – | –
303.15 K, x2 = 0.2161 | 884.84 | – | 1.4152 | 0.554
303.15 K, x2 = 0.2714 | – | 157.7 | – | –
303.15 K, x2 = 0.3184 | 906.38 | – | 1.4216 | 0.628
303.15 K, x2 = 0.3775 | – | 157.3 | – | –
303.15 K, x2 = 0.4156 | 928.04 | – | 1.4281 | 0.71
303.15 K, x2 = 0.4881 | – | 156.7 | – | –
303.15 K, x2 = 0.5105 | 950.44 | – | 1.4349 | 0.807
303.15 K, x2 = 0.5491 | 959.9 | – | 1.4378 | 0.852
303.15 K, x2 = 0.584 | 968.73 | – | 1.4405 | 0.896
303.15 K, x2 = 0.5877 | – | 156.1 | – | –
303.15 K, x2 = 0.6274 | – | 155.8 | – | –
303.15 K, x2 = 0.6652 | 989.97 | – | 1.4469 | 1.013
303.15 K, x2 = 0.6833 | – | 155.4 | – | –
303.15 K, x2 = 0.7439 | 1011.62 | – | 1.4535 | 1.149
303.15 K, x2 = 0.7593 | – | 154.7 | – | –
303.15 K, x2 = 0.8161 | 1032.51 | – | 1.4595 | 1.286
303.15 K, x2 = 0.8558 | – | 153.8 | – | –
303.15 K, x2 = 0.9343 | – | 152.9 | – | –
303.15 K, x2 = 0.9427 | 1071.55 | – | 1.4703 | 1.623
303.15 K, x2 = 0.9687 | – | 152.7 | – | –
313.15 K, x2 = 0.0723 | 846.13 | – | 1.4004 | 0.428
313.15 K, x2 = 0.1033 | – | 161.5 | – | –
313.15 K, x2 = 0.1209 | 855.52 | – | 1.4034 | 0.452
313.15 K, x2 = 0.1368 | – | 161.3 | – | –
313.15 K, x2 = 0.2135 | 874.07 | – | 1.4093 | 0.497
313.15 K, x2 = 0.2714 | – | 160.6 | – | –
313.15 K, x2 = 0.3285 | 898.41 | – | 1.4171 | 0.566
313.15 K, x2 = 0.3775 | – | 159.9 | – | –
313.15 K, x2 = 0.4268 | 920.49 | – | 1.4237 | 0.64
313.15 K, x2 = 0.4881 | – | 158.9 | – | –
313.15 K, x2 = 0.502 | 938.3 | – | 1.4291 | 0.706
313.15 K, x2 = 0.5525 | 950.72 | – | 1.433 | 0.751
313.15 K, x2 = 0.5877 | – | 158.2 | – | –
313.15 K, x2 = 0.5881 | 959.69 | – | 1.4357 | 0.786
313.15 K, x2 = 0.6274 | – | 158 | – | –
313.15 K, x2 = 0.6613 | 978.86 | – | 1.4415 | 0.872
313.15 K, x2 = 0.6833 | – | 157.4 | – | –
313.15 K, x2 = 0.7441 | 1001.63 | – | 1.4484 | 0.997
313.15 K, x2 = 0.7593 | – | 156.7 | – | –
313.15 K, x2 = 0.8488 | 1032.24 | – | 1.4572 | 1.162
313.15 K, x2 = 0.8558 | – | 155.7 | – | –
313.15 K, x2 = 0.9343 | – | 154.5 | – | –
313.15 K, x2 = 0.9474 | 1063.08 | – | 1.4666 | 1.374
313.15 K, x2 = 0.9687 | – | 154.1 | – | –
